This assay deals with T1, squalene synthetase (Homo sapiens, UniProt P37268).
T1 construct: The HepG2 enzyme preparation was centrifuged at 34,000 rpm to separate the cytosol and microsomal enzymes; host or cells: HepG2 (human hepatoblastoma), resuspended 34,000 rpm pellet of sonicated cells
T1 sequence (P37268 1-417): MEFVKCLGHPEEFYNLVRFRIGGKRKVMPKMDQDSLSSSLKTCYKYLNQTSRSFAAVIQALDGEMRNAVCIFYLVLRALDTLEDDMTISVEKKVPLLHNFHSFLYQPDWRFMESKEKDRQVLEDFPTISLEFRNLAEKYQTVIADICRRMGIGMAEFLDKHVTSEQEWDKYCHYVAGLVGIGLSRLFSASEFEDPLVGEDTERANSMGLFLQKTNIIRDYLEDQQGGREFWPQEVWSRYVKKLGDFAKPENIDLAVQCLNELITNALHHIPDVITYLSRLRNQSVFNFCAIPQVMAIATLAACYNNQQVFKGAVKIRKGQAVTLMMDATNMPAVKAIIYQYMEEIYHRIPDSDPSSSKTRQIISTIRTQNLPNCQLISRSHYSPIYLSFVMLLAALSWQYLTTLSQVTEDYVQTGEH
In words: Squalene synthetase assay (in vitro, human HepG2 cell enzyme, 3H-farnesyl pyrophosphate substrate). As to conditions: 30° C., 20 minutes. It counts as biochemical. Here is the method:
The intrinsic squalene synthetase inhibitory activity of the compound of this invention was measured by the ill vitro protocol described below:
PREPARATION OF HUMAN HepG2 cell ENZYME
1. SOURCE: HEPG2 CELL LINE(Liver, hepatoblastoma, Human) ATCC No. HB 8065
2. CELL GROWTH AND MAINTENANCE
Culture Medium: Minimum essential medium (MEM) with non-essential amino acids, sodium pyruvate, and 10% fetal bovine serum. The medium was changed twice weekly. […] The growth medium is prepared as listed below. […]
Subculture Procedure: Remove medium, wash with PBS, add fresh trypsin (0.25%)-EDTA (0.02%) with Hank's Balanced Salt solution and let flask stand for a minute and remove the trypsin solution . Incubate flask at 37° C. until cells detached. Add fresh medium, disperse and dispense cells into new flasks. Subcultivation ratio: 1:6.
PREPARATION of Delipidated Serum: Fetal calf serum(100 ml) and CAB-O-Sil (2 grams) stir overnight at 4° C. and centrifuge at 16,000 rpm for 5 hrs. […]
For each reaction, 55 μl of buffer mixture was taken with 5 μl of an inhibitor solution in MeOH and 10 μl of diluted enzyme (1 to 1536 as described in the enzyme preparation, the final protein concentration of enzyme in the assay is 1.2 μg per ml.). […] 400 μl of heptane layer was then removed into a […] and mixed with 2.5 ml of scintillation fluid and the radioactivity was determined by liquid scintillation counting. […]

One may read the IC50 as the concentration needed to halve the response being measured. The term inhibition denotes the relative decrease from the control value, in per cent. Higher therefore signals a response far below the control. Take `C=C(CC[C@]12O[C@H](C(=O)O)[C@@](O)(C(=O)O)[C@](C(=O)O)(O1)[C@H](OC(=O)/C=C/C(C)CC(C)C(C)O)[C@H]2O)[C@@H](OC(C)=O)C(C)Cc1ccccc1` (stereo partly drawn) [compound of this invention, (1S,3S,4S,5S,6R,7R)-1-[(4S)-acetoxy-3-methylene-5-methyl-6-phenyl]hexyl-4,6,7-trihydroxy-6-0-(4,6-dimethyl-7-hydroxy-2-octenoyl)-2,8-dioxabicyclo [3.2.1]octane-3,4,5-tricarboxylic acid]: the IC50 (3 μM 3H-farnesyl pyrophosphate, estimated, with a dose related inhibition, read-out: IC50 against squalene synthetase) was about 0.091 nM. This compound also showed an inhibition at 0.0018 µM (tested at a concentration of 1.8 nM) of 99%.

The values are drawn from patent US5468771A, “Cholesterol lowering compound” (Merck & Co., Inc., priority 1994, dated 1995).
